Results taken from paper PMC9860728, “Identification of New N-methyl-piperazine Chalcones as Dual MAO-B/AChE Inhibitors” (Pharmaceuticals, 2023).

How the values were obtained:
MAO-B = target: T1, MAO-B (Homo sapiens, UniProt P27338); assay: MAO-B enzyme inhibition assay (benzylamine substrate); assay type: biochemical; conditions: for remaining activity at 10 µM: read-out: Residual Activities at 10 μM (%) MAO-B; for SI (MAO): MAO-B selectivity over MAO-A, based on IC50 values
T1 construct: purchased Sigma Aldrich
T1 sequence (P27338 1-520): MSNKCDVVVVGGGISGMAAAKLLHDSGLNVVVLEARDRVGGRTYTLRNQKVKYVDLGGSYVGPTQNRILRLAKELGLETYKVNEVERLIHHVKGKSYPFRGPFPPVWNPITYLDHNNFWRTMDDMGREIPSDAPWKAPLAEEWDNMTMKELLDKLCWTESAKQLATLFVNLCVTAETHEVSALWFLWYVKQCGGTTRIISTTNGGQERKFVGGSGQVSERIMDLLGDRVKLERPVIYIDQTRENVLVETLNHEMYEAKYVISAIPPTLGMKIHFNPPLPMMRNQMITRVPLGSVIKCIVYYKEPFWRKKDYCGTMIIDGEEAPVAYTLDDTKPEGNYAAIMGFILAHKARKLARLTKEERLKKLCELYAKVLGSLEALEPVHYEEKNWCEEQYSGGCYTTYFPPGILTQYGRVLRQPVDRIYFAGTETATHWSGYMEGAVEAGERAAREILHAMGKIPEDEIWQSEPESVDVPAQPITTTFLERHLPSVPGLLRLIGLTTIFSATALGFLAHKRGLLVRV
Method: (§1) MAO assays were performed as described previously, i.e., ~0.09 U/mL of MAO-A and MAO-B were reacted with 0.06 mM kynuramine and 0.3 mM benzylamine, respectively, in 50 mM sodium phosphate (pH 7.2). […] For inhibition assay, the compounds were dissolved in DMSO and added into the reaction mixture. The final concentration of DMSO in the reaction mixture was less than 1% to avoid solvent disturbance.

BChE = BChE (Equus caballus, UniProt P81908); assay: biochemical; conditions: read-out: Residual Activities at 10 μM (%) BChE
Method: (§2) For measuring cholinesterase (ChE) activity, the Ellman method was employed with a slight modification. The AChE and BchE with ~0.02 U/mL were reacted with 0.5 mM ATCI and BTCI, respectively, followed by addition of 0.5 mM DTNB. […] In the inhibition assay, the enzyme and the compound were preincubated in reaction buffer for 15 min, followed by adding substrates and DTNB.

MAO-A = target: T2, MAO-A (Homo sapiens, UniProt P21397); assay: MAO-A enzyme inhibition assay (kynuramine substrate); assay type: biochemical; conditions: mean ± SD; for remaining activity at 10 µM: read-out: Residual Activities at 10 μM (%) MAO-A
T2 construct: purchased Sigma Aldrich
T2 sequence (P21397 1-527): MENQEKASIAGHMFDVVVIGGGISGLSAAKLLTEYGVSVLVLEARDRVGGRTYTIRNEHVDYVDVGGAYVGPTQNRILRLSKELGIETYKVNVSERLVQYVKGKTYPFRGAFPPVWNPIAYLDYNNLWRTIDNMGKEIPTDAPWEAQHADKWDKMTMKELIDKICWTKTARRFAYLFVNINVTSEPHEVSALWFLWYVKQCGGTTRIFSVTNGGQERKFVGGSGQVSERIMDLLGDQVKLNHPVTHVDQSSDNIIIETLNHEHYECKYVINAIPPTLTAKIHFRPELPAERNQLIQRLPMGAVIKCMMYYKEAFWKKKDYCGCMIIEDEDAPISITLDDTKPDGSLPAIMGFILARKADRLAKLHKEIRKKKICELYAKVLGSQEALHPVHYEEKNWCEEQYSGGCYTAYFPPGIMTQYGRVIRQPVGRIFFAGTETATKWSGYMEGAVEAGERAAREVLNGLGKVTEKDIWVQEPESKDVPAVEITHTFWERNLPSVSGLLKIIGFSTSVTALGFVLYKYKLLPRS
Method: as §1

AChE = AChE (Electrophorus electricus, UniProt O42275); assay: AChE inhibition assay (Ellman method, ATCI); assay type: biochemical; conditions: for remaining activity at 10 µM / Residual Activities at 10 μM (%) AChE: 10 μM compound, mean ± SD; for remaining activity at 10 µM: read-out: Residual Activities at 10 μM (%) AChE; for SI (ChE): AChE selectivity over BChE, based on IC50 values
Method: as §2

Chain of AChE (O42275 24-633): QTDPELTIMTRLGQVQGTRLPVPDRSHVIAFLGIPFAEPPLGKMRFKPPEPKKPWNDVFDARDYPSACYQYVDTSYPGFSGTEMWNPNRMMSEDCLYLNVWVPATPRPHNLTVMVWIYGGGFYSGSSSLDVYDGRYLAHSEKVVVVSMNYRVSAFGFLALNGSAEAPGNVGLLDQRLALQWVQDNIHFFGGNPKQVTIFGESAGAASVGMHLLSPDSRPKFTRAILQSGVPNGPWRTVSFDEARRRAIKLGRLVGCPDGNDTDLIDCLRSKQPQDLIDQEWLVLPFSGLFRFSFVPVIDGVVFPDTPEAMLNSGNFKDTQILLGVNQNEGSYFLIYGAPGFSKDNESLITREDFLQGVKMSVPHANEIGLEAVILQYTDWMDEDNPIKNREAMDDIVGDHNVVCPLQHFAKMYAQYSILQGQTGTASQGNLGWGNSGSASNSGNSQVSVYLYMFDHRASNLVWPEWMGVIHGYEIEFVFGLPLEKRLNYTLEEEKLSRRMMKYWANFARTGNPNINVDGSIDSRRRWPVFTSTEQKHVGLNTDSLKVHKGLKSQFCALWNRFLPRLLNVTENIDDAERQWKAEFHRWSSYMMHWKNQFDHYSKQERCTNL
Chain of BChE (P81908 whole entry): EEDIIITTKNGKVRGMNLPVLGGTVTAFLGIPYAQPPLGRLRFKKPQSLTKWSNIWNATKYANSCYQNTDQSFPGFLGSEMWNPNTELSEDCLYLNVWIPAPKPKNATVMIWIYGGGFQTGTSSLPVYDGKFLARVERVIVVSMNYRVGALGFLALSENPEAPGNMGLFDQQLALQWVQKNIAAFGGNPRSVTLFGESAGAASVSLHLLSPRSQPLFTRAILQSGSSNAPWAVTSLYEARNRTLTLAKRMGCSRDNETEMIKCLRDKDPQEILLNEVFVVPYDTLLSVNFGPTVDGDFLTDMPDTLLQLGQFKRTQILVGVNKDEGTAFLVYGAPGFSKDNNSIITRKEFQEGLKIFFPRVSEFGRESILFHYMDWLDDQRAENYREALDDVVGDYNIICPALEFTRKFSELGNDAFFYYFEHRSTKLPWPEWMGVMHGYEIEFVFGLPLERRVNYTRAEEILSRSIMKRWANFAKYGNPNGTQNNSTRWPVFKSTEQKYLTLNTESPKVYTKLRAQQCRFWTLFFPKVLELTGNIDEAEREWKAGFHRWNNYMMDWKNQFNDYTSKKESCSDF

SMILES | remaining activity at 10 µM (MAO-B; 10 μM compound, mean ± SD) | SI (MAO) (MAO-B) | IC50 (MAO-B; mean ± SD) | remaining activity at 10 µM (BChE) | remaining activity at 10 µM (MAO-A; 10 μM compound) | IC50 (MAO-A) | remaining activity at 10 µM (AChE) | SI (ChE) (AChE) | Residual Activities at 10 μM (%) MAO-A (MAO-A; 10 μM compound) | Residual Activities at 10 μM (%) AChE (AChE) | Residual Activities at 10 μM (%) MAO-B (MAO-B; 10 μM compound, mean ± SD)
CN1CCN(c2ccc(C(=O)/C=C/c3cccc(C(F)(F)F)c3)cc2)CC1 [Compound 2a, (E)-1-(4-(4-methylpiperazin-1-yl)phenyl)-3-(3-(trifluoromethyl)phenyl)prop-2-en-1-one] | 12.8 ± 0.79% | 15.50 | 2.58 ± 0.19 µM | 58.6 ± 6.8% | 118 ± 7.73% | > 40 µM | 34.9 ± 5.19% | 2.44 |  |  | 
CN1CCN(c2ccc(C(=O)/C=C/c3ccc(C(F)(F)F)cc3)cc2)CC1 [Compound 2b, (E)-1-(4-(4-methylpiperazin-1-yl)phenyl)-3-(4-(trifluoromethyl)phenyl)prop-2-en-1-one] | 21 ± 4.02% | 12.90 | 3.1 ± 0.04 µM | 58.5 ± 1.38% |  | > 40 µM | 19 ± 0.55% | 5.92 | 88.19 ± 6.87% |  | 
CN1CCN(c2ccc(C(=O)/C=C/c3ccc(F)cc3)cc2)CC1 [Compound 2c, (E)-3-(4-fluorophenyl)-1-(4-(4-methylpiperazin-1-yl)phenyl)prop-2-en-1-one] | 22.7 ± 1.61% | 13.42 | 2.98 ± 0.18 µM | 49.7 ± 3.7% | 103 ± 8.84% | > 40 µM | 49.4 ± 4.66% | 1.79 |  |  | 
CN1CCN(c2ccc(C(=O)/C=C/c3ccc(C#N)cc3)cc2)CC1 [Compound 2d, (E)-4-(3-(4-(4-methylpiperazin-1-yl)phenyl)-3-oxoprop-1-en-1-yl)benzonitrile] | 16.7 ± 4.71% | 18.18 | 2.2 ± 0.06 µM | 71.5 ± 5.25% | 72.3 ± 2.5% | > 40 µM | 24.3 ± 0.95% | 10.38 |  |  | 
CC(C)c1ccc(/C=C/C(=O)c2ccc(N3CCN(C)CC3)cc2)cc1 [Compound 2e, (E)-3-(4-isopropylphenyl)-1-(4-(4-methylpiperazin-1-yl)phenyl)prop-2-en-1-one] | 44.1 ± 3.04% | 1.94 | 8.36 ± 0.39 µM | 49.3 ± 1.28% | 60.6 ± 3.98% | 16.2 ± 1.74 µM |  | 3.83 |  | 17.75 ± 1.85% | 
CN1CCN(c2ccc(C(=O)/C=C/c3ccc(N(C)C)cc3)cc2)CC1 [Compound 2f, (E)-3-(4-(dimethylamino)phenyl)-1-(4-(4-methylpiperazin-1-yl)phenyl)prop-2-en-1-one] | 21.3 ± 3.77% | 12.16 | 3.29 ± 0.08 µM | 76.5 ± 3.35% | 83.6 ± 4.22% | > 40 µM |  | >13.20 |  | 26.37 ± 1.85% | 
CSc1ccc(/C=C/C(=O)c2ccc(N3CCN(C)CC3)cc2)cc1 [Compound 2g, (E)-1-(4-(4-methylpiperazin-1-yl)phenyl)-3-(4-(methylthio)phenyl)prop-2-en-1-one] | 40 ± 1.67% | 5.93 | 6.74 ± 0.03 µM | 74.7 ± 4.48% | 97.2 ± 1.99% | > 40 µM | 50.4 ± 4.43% | >3.22 |  |  | 
CN1CCN(c2ccc(C(=O)/C=C/c3ccc(OC(F)F)cc3)cc2)CC1 [Compound 2h, (E)-3-(4-(difluoromethoxy)phenyl)-1-(4-(4-methylpiperazin-1-yl)phenyl)prop-2-en-1-one] | 17.3 ± 3.77% | 6.51 | 6.14 ± 0.43 µM | 73.9 ± 3.35% | 55.2 ± 4.12% | > 40 µM | 38 ± 0.92% | >6.87 |  |  | 
CN1CCN(c2ccc(C(=O)/C=C/c3cc(F)cc(C(F)(F)F)c3)cc2)CC1 [Compound 2i, (E)-3-(3-fluoro-5-(trifluoromethyl)phenyl)-1-(4-(4-methylpiperazin-1-yl)phenyl)prop-2-en-1-one] | 20.4 ± 2.47% | 17.17 | 2.33 ± 0.14 µM | 63.7 ± 6.24% | 114 ± 6.06% | > 40 µM | 51.5 ± 4.92% | 1.82 |  |  | 
CN1CCN(c2ccc(C(=O)/C=C/c3cc(C(F)(F)F)cc(C(F)(F)F)c3)cc2)CC1 [Compound 2j, (E/Z)-3-(3,5-bis(trifluoromethyl)phenyl)-1-(4-(4-methylpiperazin-1-yl)phenyl)prop-2-en-1-one] | 67.8 ± 5.36% | 2.55 | 15.7 ± 1.17 µM | 86 ± 1.04% | 97.1 ± 4.04% | > 40 µM | 57.1 ± 5.39% | >2.60 |  |  | 
CN1CCN(c2ccc(C(=O)/C=C/c3ccc(Cl)c(C(F)(F)F)c3)cc2)CC1 [Compound 2l, (E)-3-(4-chloro-3-(trifluoromethyl)phenyl)-1-(4-(4-methylpiperazin-1-yl)phenyl)prop-2-en-1-one] |  | 28.37 | 1.41 ± 0.04 µM | 73 ± 1.75% | 85.9 ± 1.66% | > 40 µM | 68.5 ± 1.32% | 1.85 |  |  | 0.00 ± 1.79%
COc1cc(/C=C/C(=O)c2ccc(N3CCN(C)CC3)cc2)ccc1F [Compound 2m, (E)-3-(4-fluoro-3-methoxyphenyl)-1-(4-(4-methylpiperazin-1-yl)phenyl)prop-2-en-1-one] | 39.9 ± 6.26% | 5.92 | 6.76 ± 0.82 µM | 66.8 ± 2.1% | 78.8 ± 1.66% | > 40 µM | 27.6 ± 1.9% | 4.18 |  |  | 
CN1CCN(c2ccc(C(=O)/C=C/c3cc(C(F)(F)F)ccc3Cl)cc2)CC1 [Compound 2o, (E)-3-(2-chloro-5-(trifluoromethyl)phenyl)-1-(4-(4-methylpiperazin-1-yl)phenyl)prop-2-en-1-one] | 22.9 ± 2.26% | 12.50 | 3.2 ± 0.32 µM | 6.46 ± 3.05% | 92.5 ± 4.23% | > 40 µM | 37.6% | 0.31 |  |  | 
COc1ccc(/C=C/C(=O)c2ccc(N3CCN(C)CC3)cc2)c(C(F)(F)F)c1 [Compound 2p, (E)-3-(4-methoxy-2-(trifluoromethyl)phenyl)-1-(4-(4-methylpiperazin-1-yl)phenyl)prop-2-en-1-one] | 15 ± 3.93% | 3.06 | 2.18 ± 0.01 µM | 28.9 ± 4.08% | 44.5 ± 3.31% | 6.67 ± 0.63 µM | 37.8 ± 7.64% | 1.06 |  |  | 
CN1CCN(c2ccc(C(=O)/C=C/c3ccc(F)cc3F)cc2)CC1 [Compound 2q, (E)-3-(2,4-difluorophenyl)-1-(4-(4-methylpiperazin-1-yl)phenyl)prop-2-en-1-one] | 13.1 ± 2.06% | 5.45 | 3.03 ± 0.13 µM | 55.3 ± 0.68% | 72.7 ± 3.31% | 16.5 ± 1.75 µM | 33.78 ± 0.27% | 1.71 |  |  | 
